One data set concerns Bacillus sp. MB-633. The data set can be described thus: In vitro antibacterial spectrum profile, agar diffusion. Format: cell-based. As to conditions: read-out: Inhib. Zone Diam. Here is the method:
(§1) The test to determine the antibiotic spectrum profile of antibiotic 890A2 is carried out by saturating 1/4 inch diameter paper discs in a solution of antibiotic 890A2 in 5% methanol at a concentration of 5 μg./ml.; air drying the saturated paper discs and placing them on the surface of 100 × 15 mm. petri plates containing 5 ml. of seeded nutrient agar plus 0.2% yeast extract.
(§2) The test to determine the antibiotic spectrum profile of antibiotic 890A5 is carried out by application of a 0.015 ml. droplet of a 33 μg./ml. aqueous solution of the antibiotic on the surface of a 100 × 15 mm. petri plate containing 5 ml. of seeded nutrient agar plus 0.2% yeast extract.

In data set [1] the test system is Bacillus subtilis ATCC 6633. The data set is described as above. The format is cell-based.
Data set [2] concerns Streptococcus faecalis MB-753. Described as above. The format is cell-based. The conditions noted are these: Enterococcus faecalis, MB753, read-out: Inhib. Zone Diam.
The test system of data set [3] is Proteus vulgaris ATCC 21100. Described as above. The format is cell-based. As to conditions: read-out: Inhib. Zone Diam.
Data set [4] deals with Vibrio percolans + Aerobacter Lactamase MB-1272. The data set is described as follows: In vitro antibacterial spectrum profile, agar diffusion, with Aerobacter lactamase. The conditions noted are these: Comamonas terrigena, read-out: Inhib. Zone Diam. Format: cell-based. Background: A growth-free zone around the sample is the usual read-out of agar diffusion tests.
In data set [5] the test system is Vibrio percolans ATCC 8461. The data set is described as follows: Bioassay I, agar plate disc-diffusion potency per HAEA308 unit. Format: cell-based. The conditions noted are these: Vibrio percolans ATCC 8461, Bioassay I. As for the experimental part: An agar plate disc-diffusion method is employed using either Vibrio percolans ATCC 8461 or Salmonella gallinarum MB-1287 as tester organism. A purified sample of antibiotic 890A1 is used as standard. Antibiotic 890A1 is prepared according to the procedure set forth in Example 5.
Plates containing Vibrio percolans ATCC 8461 are prepared as follows:
A lyophilized culture of Vibrio percolans ATCC 8461 is suspended in 15 ml. of a sterilized medium containing 8 g./liter of Difco Nutrient Broth and 2 g./liter of yeast extract in distilled water "nutrient broth-yeast extract" (herein after designated NBYE). The culture is incubated overnight on a rotary shaker at 28° C. […]
Filter paper discs of one-half inch diameter are dipped into the solution to be assayed, and are placed on the agar. […] The diameter of the zone of inhibition is measured after appropriate incubation (9-18 hours at 37° C. for Salmonella gallinarum MB-1287 or 12-24 hours at 25° C. for Vibrio percolans ATCC 8461.) If necessary, dilutions of the solutions to be assayed are made in 0.05M potassium phosphate buffer, pH 7.4 "potassium phosphate buffer" (hereinafter referred to as KPB), or in deionized water.
Calculations of potencies proceed as follows: a slope is determined by measuring the zone diameters of a solution of antibiotic 890A2 or 890A5 and of a four-fold dilution (in KPB) of this solution. […]

In data set [6] the test system is Difco penicillinase and lactamase(s) produced by a cephalosporin C-resistant strain of Vibrio percolans (MB-2566). The data set is described as follows: Inactivation by penicillinase and lactamase(s), from the antibiotic spectra. Format: cell-based. The conditions noted are these: judged from the spectra of Table III. Here is the method:
as §1, §2
The spectra of antibiotic 890A2 and 890A5 are quite similar, except for the resistance of 890A5 to inactivation by Difco penicillinase and by lactamase(s) produced by a cephalosporin C-resistant strain of Vibrio percolans (MB-2566).

A short description of a further data set: Solubility in water. The format is physicochemical. The conditions noted are these: sodium salt, white powder as lyophilized.
Data set [7] can be described thus: Stability during desalting on Sephadex G-10. Format: physicochemical. As to conditions: pooled fractions at pH 4.1; A308/A260 ratio of 0.76. As for the experimental part: Fractions 112 through 130 containing 890A2, are concentrated under reduced pressure to 5.5 ml. and the concentrate is applied to a column (2.15 × 70 cm.) of Sephadex G-10, and eluted with deionized water at a flow rate of 1 ml. per minute. Fractions of 2.85 ml. each are collected. The bioactivity as determined by assay against Salmonella gallinarum MB1287 appears in fractions 60 through 98. Fractions 78 through 90 have the highest A308 /A260 ratios, and these are pooled for lyophilization. The pH of the pooled fractions is 4.1, and is adjusted to 7.8 by addition of 8 μl of 1M ammonia.

As to `CC(=O)NC=CSC1=C(C(=O)O)N2C(=O)C(C(C)O)C2C1` (centres unmarked) [Antibiotic 890A5], the zone of inhibition at 33 µg/mL with Bacillus sp. MB-633 (SP.MB633, 890A5 33 μg./ml., 0.015 ml. droplet) came out at 18 mm; in [1] (ATCC6633, read-out: Inhib. Zone Diam.), 27 mm; in data set [2] (890A5 33 μg./ml., 0.015 ml. droplet), 0 mm; in data set [3] (ATCC21100, 890A5 33 μg./ml., 0.015 ml. droplet) it was 27 mm; in [4], 36 mm. In addition, the “antibiotic potency (ratio of bioactivity to HAEA308)” value in data set [5] turned out to be 12 units per HAEA308 unit. In addition, the “inactivation by Difco penicillinase and by lactamase(s) of Vibrio percolans MB-2566” value in data set [6] is given as “resistance”.

Consider `CC(=O)NC=CSC1=C(C(=O)O)N2C(=O)C(C(C)O)C2C1` (centres unmarked) [Antibiotic 890A2], for which the zone of inhibition at 5 µg/mL with Bacillus sp. MB-633 (SP.MB633, 890A2 5 μg./ml., 1/4 inch paper disc) came to 40 mm; in [1] (ATCC6633, 890A2 5 μg./ml., 1/4 inch paper disc, read-out: Inhib. Zone Diam.), 42 mm; in data set [2] (890A2 5 μg./ml., 1/4 inch paper disc) it was 12 mm; in data set [3] (ATCC21100, 890A2 5 μg./ml., 1/4 inch paper disc), 30 mm; in data set [4] it was 31 mm. For the same molecule, the solubility in water entry in “Solubility in water” was “very soluble in water”. In data set [7], the “stability during Sephadex G-10 desalting” value is recorded as “substantial degradation”.

These data come from patent US4141986A, “Antibiotics 890A2 and 890A5” (Merck & Co., Inc., priority 1977, dated 1979).
